Results reported in PubChem BioAssay (NCI).
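How tested: cells in 96-well plates exposed to compound for 48 hours at five concentrations. TGI: total growth inhibition.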

Experiments:
Assay in all cases: DTP human tumour cell line panel, 48 h
SK-MEL-2 melanoma = tested on: SK-MEL-2 melanoma
ACHN renal = tested on: ACHN renal
SN12C renal = tested on: SN12C renal
M14 melanoma = tested on: M14 melanoma
MOLT-4 leukemia = tested on: MOLT-4 leukemia
T-47D breast = tested on: T-47D breast
786-0 renal = tested on: 786-0 renal
UACC-257 melanoma = tested on: UACC-257 melanoma
SR leukemia = tested on: SR leukemia

`COc1cc2c[n+](C)c3c4cc(OC)c(OCc5ccccc5)cc4c(OCc4ccccc4)cc3c2cc1OC` was tested, and the TGI (SK-MEL-2 melanoma) was 6.29 µM, the TGI (ACHN renal) was > 100 µM and the TGI (SN12C renal) was 33.2 µM. For the same compound, the TGI (M14 melanoma) was 21.6 µM, the TGI (MOLT-4 leukemia) was 14.2 µM and the TGI (T-47D breast) was 21.6 µM. For the same compound, the TGI (786-0 renal) was 35.5 µM, the TGI (UACC-257 melanoma) was 14.4 µM and the TGI (SR leukemia) was 6 µM.

For `O=c1[nH]c(=O)n(C2CC(O)C(CO)O2)cc1Br` (stereo not drawn), the TGI (SK-MEL-2 melanoma) was > 100 µM, the TGI (ACHN renal) was > 100 µM and the TGI (SN12C renal) was > 100 µM. For the same compound, the TGI (M14 melanoma) was > 100 µM, the TGI (MOLT-4 leukemia) was > 100 µM and the TGI (T-47D breast) was > 100 µM. The TGI (786-0 renal) was > 100 µM and the TGI (UACC-257 melanoma) was > 100 µM.

With `O=c1[nH]cnc2c1cnn2Cc1cnnn1COCCO` the TGI (SK-MEL-2 melanoma) was > 100 µM, the TGI (ACHN renal) was > 100 µM and the TGI (SN12C renal) was > 100 µM. For the same compound, the TGI (M14 melanoma) was > 100 µM, the TGI (MOLT-4 leukemia) was > 100 µM and the TGI (T-47D breast) was > 100 µM. For the same compound, the TGI (786-0 renal) was > 100 µM and the TGI (UACC-257 melanoma) was > 100 µM.

With `COc1ccc(/C=C/C(=O)c2ccc(Br)cc2)cc1` the TGI (SK-MEL-2 melanoma) was > 100 µM, the TGI (ACHN renal) was > 100 µM and the TGI (SN12C renal) was > 100 µM. For the same compound, the TGI (M14 melanoma) was > 100 µM, the TGI (MOLT-4 leukemia) was > 100 µM and the TGI (T-47D breast) was > 100 µM. The TGI (786-0 renal) was > 100 µM and the TGI (SR leukemia) was > 100 µM.

`Cc1nc2ccc(NC3OCC(O)C(O)C3O)cc2c(=O)n1-c1ccccc1` (stereo not drawn) was tested, and the TGI (SK-MEL-2 melanoma) was > 100 µM, the TGI (ACHN renal) was > 100 µM and the TGI (SN12C renal) was > 100 µM. The TGI (MOLT-4 leukemia) was > 100 µM, the TGI (T-47D breast) was > 100 µM and the TGI (786-0 renal) was > 100 µM. The TGI (UACC-257 melanoma) was > 100 µM and the TGI (SR leukemia) was > 100 µM.

`COc1ccc2c(c1)/c(=C/C#N)c1c3ccccc3[n+](C)n21` was tested, and the TGI (SK-MEL-2 melanoma) was 36.1 µM, the TGI (ACHN renal) was 32 µM and the TGI (SN12C renal) was 47.4 µM. For the same compound, the TGI (M14 melanoma) was 32.4 µM, the TGI (MOLT-4 leukemia) was > 57.2 µM and the TGI (T-47D breast) was 10.6 µM. The TGI (786-0 renal) was > 70.1 µM, the TGI (UACC-257 melanoma) was 19.3 µM and the TGI (SR leukemia) was > 100 µM.

Compound `CSc1ccc2c(c1)c(CCN)c(C)n2Cc1ccccc1Cl` has a TGI (SK-MEL-2 melanoma) of 3.26 µM, a TGI (ACHN renal) of 3.06 µM and a TGI (SN12C renal) of 3.06 µM. It also gave a TGI (M14 melanoma) of 3.32 µM, a TGI (T-47D breast) of 3.09 µM and a TGI (786-0 renal) of 3.42 µM. The TGI (UACC-257 melanoma) was 3.29 µM and the TGI (SR leukemia) was > 100 µM.

Work on `O=C1c2cccnc2-c2nccc3c2c1nc1ccccc13` yielded a TGI (SK-MEL-2 melanoma) of 0.525 µM, a TGI (SN12C renal) of 1.03 µM and a TGI (M14 melanoma) of 0.269 µM. For the same compound, the TGI (MOLT-4 leukemia) was 3.2 µM, the TGI (T-47D breast) was 2.08 µM and the TGI (786-0 renal) was 2.21 µM. It also gave a TGI (UACC-257 melanoma) of 1.06 µM.

`C=CCOC(=O)Cn1ccc(=O)[nH]c1=O` was tested, and the TGI (SK-MEL-2 melanoma) was > 100 µM, the TGI (ACHN renal) was > 100 µM and the TGI (SN12C renal) was > 100 µM. For the same compound, the TGI (M14 melanoma) was > 100 µM, the TGI (MOLT-4 leukemia) was > 100 µM and the TGI (T-47D breast) was > 100 µM. For the same compound, the TGI (786-0 renal) was > 100 µM, the TGI (UACC-257 melanoma) was > 100 µM and the TGI (SR leukemia) was > 100 µM.

`COC(=O)c1c2c(cc3c1CC1(Cc4ccccc4C1)C3)CCC2` showed a TGI (ACHN renal) of 86.8 µM, a TGI (SN12C renal) of 95.8 µM and a TGI (MOLT-4 leukemia) of 40.2 µM. For the same compound, the TGI (T-47D breast) was 43.2 µM, the TGI (786-0 renal) was > 100 µM and the TGI (UACC-257 melanoma) was 47 µM. It also gave a TGI (SR leukemia) of 54.2 µM.

For `CCCN(CCC)C(=O)c1c(N2CCN(C)CC2)c2cccnc2n2c(C)cnc12`, the TGI (SK-MEL-2 melanoma) was > 100 µM, the TGI (ACHN renal) was > 100 µM and the TGI (SN12C renal) was > 100 µM. The TGI (M14 melanoma) was > 100 µM, the TGI (MOLT-4 leukemia) was > 100 µM and the TGI (T-47D breast) was > 100 µM. For the same compound, the TGI (786-0 renal) was > 100 µM, the TGI (UACC-257 melanoma) was > 100 µM and the TGI (SR leukemia) was > 100 µM.

In the case of `COc1cc(/C=C/C(=N\NC(N)=S)c2sc(NNC(C)=O)nc2C)ccc1O`, the TGI (SK-MEL-2 melanoma) is reported as > 100 µM, the TGI (ACHN renal) is reported as > 100 µM and the TGI (SN12C renal) is reported as > 100 µM. For the same compound, the TGI (M14 melanoma) was > 100 µM, the TGI (MOLT-4 leukemia) was > 100 µM and the TGI (T-47D breast) was > 100 µM. For the same compound, the TGI (786-0 renal) was > 100 µM, the TGI (UACC-257 melanoma) was > 100 µM and the TGI (SR leukemia) was > 100 µM.

`Cc1ccc(S(=O)(=O)N(CCNC(=O)c2cccc(O)c2O)c2cc3c4c(c2)Oc2cccc5c2C4(C)c2c(cccc2O3)O5)cc1` was tested, and the TGI (SK-MEL-2 melanoma) was > 100 µM, the TGI (ACHN renal) was > 100 µM and the TGI (SN12C renal) was > 100 µM. The TGI (M14 melanoma) was > 100 µM, the TGI (MOLT-4 leukemia) was > 100 µM and the TGI (T-47D breast) was > 100 µM. For the same compound, the TGI (786-0 renal) was > 100 µM, the TGI (UACC-257 melanoma) was > 100 µM and the TGI (SR leukemia) was > 100 µM.
